Like-named read-outs stand apart in the source and are kept apart here.
Test system: HBV
Test: Viral load production from HepAD38 cells, qPCR of the HBV core sequence in supernatant
Assay type: cell-based
Conditions: Hepatitis B virus, HePAD38, 120 h, Table 1 ranges
Protocol: HepAD38 cells grown in a T-150 flask (Corning, cat#: 430825) with Growth Medium (DMEM/F12 (1:1) (Hyclone, cat#: SH30023.02), 1X Pen/Strep (Invitrogen, cat#: 15140-122), 10% FBS (Tissue Culture Biologics, cat#: 101), 250 µg/mL G418 (Alfa Aesar, cat#: J62671), 1 µg/mL Tetracycline (Teknova, cat#: T3320)) were detached with 0.25% trypsin-EDTA (Invitrogen, cat#: 25200-056). Tetracycline-free treatment medium (15 mL DMEM/F12 (1:1) 1× Pen/step, with 2% FBS, Tet-system approved (Clontech, cat#: 631106) were then added to mix, transferred into a 50 ml conical tube (Falcon, cat#: 21008-918,) and spun at 1300 rpm for 5 min. Pelleted cells were then re-suspended/washed with 50 mL of 1X DPBS (Invitrogen, cat#: 14190-136) 2 times and 50 mL treatment medium twice. HepAD38 cells were then re-suspended with 10 mL of treatment medium, syringed and counted. Wells of 96-well clear bottom TC plate (Corning, cat#: 3904,) were seeded at 50.000 cells/well in 180 µL of treatment medium, and 20 µL of either 10% DMSO (Sigma, cat#: D4540) as controls or a 10X solution of test compounds in 10% DMSO in treatment media was added for a final compound concentration starting at 10 µM, and plates were incubated in 5% CO2 incubator at 37° C. for 5 days.
Subsequently viral load production was assayed by quantitative PCR (qPCR) of the HBV core sequence. PCR reaction mixture containing forward primers HBV-f 5′-CTGTGCCTTGGGTGGCTTT-3′ (IDT DNA), Reverse primers HBV-r 5′-[…]-3′ (IDT DNA), Fluorescent TaqMan^tm Probes HBV-probe 5′-FAM/AGCTCCAAA/ZEN/[…]/3IABkFQ-3′ (IDT DNA), 10 µL/well of PerfeCTa® qPCR ToughMix® (Quanta Biosciences, Cat#: 95114-05 K), and 6 µL/well of DEPC water (Alfa Aesar, cat#: J62087) was prepared. Four µL of supernatant was added to 16 µL of the reaction mixture in a qPCR plate (Applied Biosytems, Cat#: 4309849), sealed with a film (Applied Biosystems, Cat#: 4311971), centrifuged for a few seconds, and subsequently run on an Applied Biosystems VIIA7. The PCR mixture was incubated at 45° C. for 5 min, then 95° C. for 10 min, followed by 40 cycles of 10 seconds at 95° C. and 20 seconds at 60° C. Viral load was quantified against known HBV DNA standards by using ViiA™ 7 Software. Viral load in the supernatant from wells with treated cells were compared against viral load in supernatant from DMSO control wells (≥ 3 per plate). Cell viability assay was performed with CellTiter-Glo Luminescent Cell Viability Assay (Promega, cat#: G7573) with modification. Mixed appropriate amount of CellTiter-Glo (CTG) 1X DPBS in a 1:1 ratio, added 100 uL of the mixture to each well followed completely removal of all supernatant in each well without touching cell surface. Incubated the plate at room temperature for 10 min on an orbital shaker, and then read the plate with a plate reader (TECAN M1000 or Envision). EC50 or CC50 values were calculated through curve-fitting of the four-parameter nonlinear-logistic-regression model (GraphPad Prism or Dotmatics). CC50 values were all >10 µM.

[1] = HepAD38 cells, 5 days, HBV DNA in supernatant by qPCR, read-out: Activity (viral load lowering EC50)

| SMILES | EC50 [1] [nM] | EC50 (read-out: Activity (viral load lowering EC50), HepAD38 cells, 5 days, HBV DNA in supernatant by qPCR) [nM] |
| --- | --- | --- |
| Cn1nc(C2CC3CC(O)(c4cn(COP(=O)(OC(C)(C)C)OC(C)(C)C)nc4C(F)(F)F)CC3C2)c(C(=O)Nc2ccc(F)c(Cl)c2)c1N (stereo not shown) [Compd. 6-1, (4-(5-(5-amino-4-((3-chloro-4-fluorophenyl)carbamoyl)-1-methyl-1H-pyrazol-3-yl)-2-hydroxyoctahydropentalen-2-yl)-3-(trifluoromethyl)-1H-pyrazol-1-yl)methyl di-tert-butyl phosphate] | 10 to 50 | – |
| Cn1nc(C2CC3CC(O)(c4cn(COP(=O)(O)OC(C)(C)C)nc4C(F)(F)F)CC3C2)c(C(=O)Nc2ccc(F)c(Cl)c2)c1N (stereo not shown) [Cpmpd. 6-2, (4-(5-(5-amino-4-((3-chloro-4-fluorophenyl)carbamoyl)-1-methyl-1H-pyrazol-3-yl)-2-hydroxyoctahydropentalen-2-yl)-3-(trifluoromethyl)-1H-pyrazol-1-yl)methyl tert-butyl hydrogen phosphate] | – | 10 to 50 |
| Cn1nc(C2CC3CC(O)(c4ccccc4)CC3C2)c(C(=O)Nc2ccc(F)c(Cl)c2)c1N (stereo not shown) [Example 1, 5-Amino-N-(3-chloro-4-fluorophenyl)-3-(5-hydroxy-5-phenyl-octahydropentalen-2-yl)-1-methyl-1H-pyrazole-4-carboxamide] | < 10 | – |
| C=CCC1(O)CC2CC(c3nn(C)c(N)c3C(=O)Nc3ccc(F)c(Cl)c3)CC2C1 (stereo not shown) [Example 2, 3-(5-Allyl-5-hydroxyoctahydropentalen-2-yl)-5-amino-N-(3-chloro-4-fluorophenyl)-1-methyl-1H-pyrazole-4-carboxamide] | < 10 | – |
| Cn1nc(C2CC3CC(O)(c4ccc(Cl)cc4)CC3C2)c(C(=O)Nc2ccc(F)c(Cl)c2)c1N (stereo not shown) [Example 3, 5-Amino-N-(3-chloro-4-fluorophenyl)-3-(5-(4-chlorophenyl)-5-hydroxyoctahydropentalen-2-yl)-1-methyl-1H-pyrazole-4-carboxamide] | 10 to 50 | – |
| Cn1nc(C2CC3CC(O)(c4ccc(F)cc4)CC3C2)c(C(=O)Nc2ccc(F)c(Cl)c2)c1N (stereo not shown) [Example 4, 5-Amino-N-(3-chloro-4-fluorophenyl)-3-(5-(4-fluorophenyl)-5-hydroxyoctahydropentalen-2-yl)-1-methyl-1H-pyrazole-4-carboxamide] | 10 to 50 | – |
| COc1ccc(C2(O)CC3CC(c4nn(C)c(N)c4C(=O)Nc4ccc(F)c(Cl)c4)CC3C2)cc1 (stereo not shown) [Example 5, 5-Amino-N-(3-chloro-4-fluorophenyl)-3-(5-hydroxy-5-(4-methoxyphenyl)octahydropentalen-2-yl)-1-methyl-1H-pyrazole-4-carboxamide] | < 10 | – |
| Cc1ccc(C2(O)CC3CC(c4nn(C)c(N)c4C(=O)Nc4ccc(F)c(Cl)c4)CC3C2)cc1 (stereo not shown) [Example 6, 5-Amino-N-(3-chloro-4-fluorophenyl)-3-(5-hydroxy-5-(p-tolyl)octahydropentalen-2-yl)-1-methyl-1H-pyrazole-4-carboxamide] | < 10 | – |
| Cc1ccc(C2(O)CC3CC(c4nn(C)c(N)c4C(=O)Nc4ccc(F)c(C#N)c4)CC3C2)cc1 (stereo not shown) [Example 7, 5-Amino-N-(3-cyano-4-fluorophenyl)-3-(5-hydroxy-5-(p-tolyl)octahydropentalen-2-yl)-1-methyl-1H-pyrazole-4-carboxamide] | < 10 | – |
| Cc1ccccc1C1(O)CC2CC(c3nn(C)c(N)c3C(=O)Nc3ccc(F)c(Cl)c3)CC2C1 (stereo not shown) [Example 8, 5-Amino-N-(3-chloro-4-fluorophenyl)-3-(5-hydroxy-5-(o-tolyl)octahydropentalen-2-yl)-1-methyl-1H-pyrazole-4-carboxamide] | < 10 | – |
| Cn1nc(C2CC3CC(O)(c4ccc(F)cc4)CC3C2)c(C(=O)Nc2ccc(F)c(C#N)c2)c1N (stereo not shown) [Example 9, 5-Amino-N-(3-cyano-4-fluorophenyl)-3-(5-(4-fluorophenyl)-5-hydroxyoctahydropentalen-2-yl)-1-methyl-1H-pyrazole-4-carboxamide] | < 10 | – |
| Cn1nc(C2CC3CC(O)(c4ccc(Oc5ccccc5)cc4)CC3C2)c(C(=O)Nc2ccc(F)c(Cl)c2)c1N (stereo not shown) [Example 10, 5-Amino-N-(3-chloro-4-fluorophenyl)-3-(5-hydroxy-5-(4-phenoxyphenyl)octahydropentalen-2-yl)-1-methyl-1H-pyrazole-4-carboxamide] | < 10 | – |
| Cn1nc(C2CC3CC(O)(c4cc(F)cc(F)c4)CC3C2)c(C(=O)Nc2ccc(F)c(Cl)c2)c1N (stereo not shown) [Example 11, 5-Amino-N-(3-chloro-4-fluorophenyl)-3-(5-(3,5-difluorophenyl)-5-hydroxyoctahydropentalen-2-yl)-1-methyl-1H-pyrazole-4-carboxamide] | 10 to 50 | – |
| Cn1nc(C2CC3CC(O)(c4ccc(F)c(F)c4)CC3C2)c(C(=O)Nc2ccc(F)c(Cl)c2)c1N (stereo not shown) [Example 12, 5-Amino-N-(3-chloro-4-fluorophenyl)-3-(5-(3,4-difluorophenyl)-5-hydroxyoctahydropentalen-2-yl)-1-methyl-1H-pyrazole-4-carboxamide] | 10 to 50 | – |
| Cc1cc(C2(O)CC3CC(c4nn(C)c(N)c4C(=O)Nc4ccc(F)c(Cl)c4)CC3C2)ccc1F (stereo not shown) [Example 13, 5-Amino-N-(3-chloro-4-fluorophenyl)-3-(5-(4-fluoro-3-methylphenyl)-5-hydroxyoctahydropentalen-2-yl)-1-methyl-1H-pyrazole-4-carboxamide] | 10 to 50 | – |
| Cn1nc(C2CC3CC(O)(c4ccccn4)CC3C2)c(C(=O)Nc2ccc(F)c(Cl)c2)c1N (stereo not shown) [Example 14, 5-Amino-N-(3-chloro-4-fluorophenyl)-3-(5-hydroxy-5-(pyridin-2-yl)octahydropentalen-2-yl)-1-methyl-1H-pyrazole-4-carboxamide] | < 10 | – |
| Cn1nc(C2CC3CC(O)(c4cccnc4)CC3C2)c(C(=O)Nc2ccc(F)c(Cl)c2)c1N (stereo not shown) [Example 15, 5-Amino-N-(3-chloro-4-fluorophenyl)-3-(5-hydroxy-5-(pyridin-3-yl)octahydropentalen-2-yl)-1-methyl-1H-pyrazole-4-carboxamide] | < 10 | – |
| Cn1nc(C2CC3CC(O)(c4ccncc4)CC3C2)c(C(=O)Nc2ccc(F)c(Cl)c2)c1N (stereo not shown) [Example 16, 5-Amino-N-(3-chloro-4-fluorophenyl)-3-(5-hydroxy-5-(pyridin-4-yl)octahydropentalen-2-yl)-1-methyl-1H-pyrazole-4-carboxamide] | < 10 | – |
| Cc1ccc(C2(O)CC3CC(c4nn(C)c(N)c4C(=O)Nc4ccc(F)c(Cl)c4)CC3C2)nc1 (stereo not shown) [Example 17, 5-Amino-N-(3-chloro-4-fluorophenyl)-3-(5-hydroxy-5-(5-methylpyridin-2-yl)octahydropentalen-2-yl)-1-methyl-1H-pyrazole-4-carboxamide] | < 10 | – |
| Cn1nc(C2CC3CC(O)(c4nccs4)CC3C2)c(C(=O)Nc2ccc(F)c(Cl)c2)c1N (stereo not shown) [Example 18, 5-Amino-N-(3-chloro-4-fluorophenyl)-3-(5-hydroxy-5-(thiazol-2-yl)octahydropentalen-2-yl)-1-methyl-1H-pyrazole-4-carboxamide] | < 10 | – |
| Cn1ccnc1C1(O)CC2CC(c3nn(C)c(N)c3C(=O)Nc3ccc(F)c(Cl)c3)CC2C1 (stereo not shown) [Example 19, 5-Amino-N-(3-chloro-4-fluorophenyl)-3-(5-hydroxy-5-(1-methyl-1H-imidazol-2-yl)octahydropentalen-2-yl)-1-methyl-1H-pyrazole-4-carboxamide] | < 10 | – |
| Cn1nc(C2CC3CC(O)(c4ncco4)CC3C2)c(C(=O)Nc2ccc(F)c(Cl)c2)c1N (stereo not shown) [Example 21, 5-Amino-N-(3-chloro-4-fluorophenyl)-3-(5-hydroxy-5-(oxazol-2-yl)octahydropentalen-2-yl)-1-methyl-1H-pyrazole-4-carboxamide] | < 10 | – |

— US20230295096A1, “PYRAZOLE CARBOXAMIDE COMPOUNDS FOR TREATMENT OF HBV” (ASSEMBLY BIOSCIENCES, INC., priority 2020, published 2023)
